From patent US11964052B2, “Lipid compounds and lipid nanoparticle compositions” (SUZHOU ABOGEN BIOSCIENCES CO., LTD., priority 2021, dated 2024)

How the values were obtained:
Format in all cases: physicochemical
[1] = Encapsulation efficiency of lipid nanoparticles, Quant-it Ribogreen RNA quantification assay; conditions: LNP with mRNA
Experimental: (§1) Briefly, a cationic lipid provided herein, DSPC, cholesterol, and PEG-lipid were solubilized in ethanol at a molar ratio of 50:10:38.5:1.5, and mRNA were diluted in 10 to 50 mM citrate buffer, pH=4. The LNPs were prepared at a total lipid to mRNA weight ratio of approximately 10:1 to 30:1 by mixing the ethanolic lipid solution with the aqueous mRNA solution at a volume ratio of 1:3 using a microfluidic apparatus, total flow rate ranging from 9-30 mL/min. Ethanol were thereby removed and replaced by DPBS using dialysis. Finally, the lipid nanoparticles were filtered through a 0.2 μm sterile filter.
(§2) Lipid nanoparticle size were determined by dynamic light scattering using a Malvern Zetasizer Nano ZS (Malvern UK) using a 173° backscatter detection mode. The encapsulation efficiency of lipid nanoparticles were determined using a Quant-it Ribogreen RNA quantification assay kit (Thermo Fisher Scientific, UK) according to the manufacturer's instructions.

[2] = Lipid nanoparticle size and polydispersity by dynamic light scattering (Malvern Zetasizer Nano ZS); conditions: LNP of cationic lipid/DSPC/cholesterol/PEG-lipid 50:10:38.5:1.5 with mRNA
Experimental: as §1, §2

[3] = Apparent pKa of LNP formulations, TNS fluorescence assay; conditions: LNP cationic lipid/DSPC/cholesterol/DMG-PEG 50/10/38.5/1.5 mol %, pH 3 to 9
Experimental: As reported in literature, the apparent pKa of LNP formulations correlates with the delivery efficiency of LNPs for nucleic acids in vivo. The apparent pKa of each formulation was determined using an assay based on fluorescence of 2-(p-toluidino)-6-napthalene sulfonic acid (TNS). LNP formulations comprising of cationic lipid/DSPC/cholesterol/DMG-PEG (50/10/38.5/1.5 mol %) in PBS were prepared as described above. TNS was prepared as a 300 uM stock solution in distilled water. LNP formulations were diluted to 0.1 mg/ml total lipid in 3 mL of buffered solutions containing 50 mM sodium citrate, 50 mM sodium phosphate, 50 mM sodium borate, and 30 mM sodium chloride where the pH ranged from 3 to 9. An aliquot of the TNS solution was added to give a final concentration of 0.1 mg/ml and following vortex mixing fluorescence intensity was measured at room temperature in a Molecular Devices Spectramax iD3 spectrometer using excitation and mission wavelengths of 325 nm and 435 nm. A sigmoidal best fit analysis was applied to the fluorescence data and the pKa value was measured as the pH giving rise to half-maximal fluorescent intensity.

SMILES | Encapsulation Efficiency [1] [%] | polydispersity [2] | size (nm) [2] [nm] | Apparant Pka [3]
CCCCCCCCCCCCOCC(CN(C)CCN(CCO)C1CCC1)OCCCCCCCCCCCC (stereo not shown) [Compound 39] | 94.7 | 0.162 | 111.2 | 6.712
CCCCCCCCCCCCOCC(CN(C)CCN(CCO)C1CCC1)OC(=O)CCCCCCCCCCC (stereo not shown) [Compound 42] | 94.4 | 0.155 | 82.81 | 6.283
CCCCCCCCCCCCOCC(O)CN(CCCCCC(=O)OCC(CCCCCC)CCCCCCCC)CCN(C)C (stereo not shown) [Compound 7] | 96.7 | 0.063 | 85.46 | 8.7
CCCCCCCCC(CCCCCCCC)CNC(=O)CCOCC(CN(C)CCN(CCO)C1CCC1)OCCC(=O)NCC(CCCCCCCC)CCCCCCCC (stereo not shown) [Compound 51] | 94.7 | 0.057 | 75.11 | 7.727
CCCCCCCCCCCC(=O)OCC(CN(CCCCCC(=O)OCC(CCCCCC)CCCCCC)CCN1CCC(O)C1)OC(=O)CCCCC (stereo not shown) [Compound 62] | 94.1 | 0.075 | 58.44 | 7.062
CCCCCCCCCCCCOCC(CN(CCCCCC(=O)OCC(CCCCCC)CCCCCCCC)CCN(CCO)C1CCCCC1)OC(C)=O (stereo not shown) [Compound 21] | 85.5 | 0.221 | 74.88 | 5.49
CCCCCCCCCCCCOCC(CN(CCCCCC(=O)OCCCCCCCCCC)CCN(CCO)C1CCC1)OCCCCCCCC (stereo not shown) [Compound 48] | 91.7 | 0.113 | 79.39 | 6.263
CCCCCCCCCCCCOCC(CN(C)CCO)OC(=O)CCCCCCCCCCC (stereo not shown) [Compound 41] | 83.5 | 0.136 | 82.81 | 5.746
CCCCCCCCCCCCOCC(CN(CCCCCC(=O)OCC(CCCCCC)CCCCCCCC)CCN(CCO)C1CCCCCC1)OCCCCCCCCCCCC (stereo not shown) [Compound 31] | 80.1 | 0.127 | 51.35 | 5.704
CCCCCCCCCCCCOCC(CN(CCO)C1CCC1)OCCCCCCCCCCCC (stereo not shown) [Compound 1] | 96.3 | 0.12 | 72.4 | 5.902

Further lines, results first:

Encapsulation Efficiency [1] [%] | polydispersity [2] | size (nm) [2] [nm] | Apparant Pka [3] | SMILES
93.77 | 0.017 | 159.72 | 6.166 | CCCCCCCCC(CCCCCC)CC(=O)OCC(CCCCN(CC=C(C)C)CCN(CCO)C1CCC1)COC(=O)CC(CCCCCC)CCCCCCCC (stereo not shown) [Compound 78]
93.58 | 0.01 | 77.16 | 6.997 | CCCCCCCCCCCCCCCC(=O)OCC(CCCCN(CCO)C1CCC1)COC(=O)CC(CCCCCC)CCCCCCCC (stereo not shown) [Compound 98]
93.93 | 0.04 | 77.15 | 6.793 | CCCCCCCCCCC(=O)OCC(CCCCN(CC=C(C)C)CCO)COC(=O)CC(CCCCCC)CCCCCCCC (stereo not shown) [Compound 94]
91.81 | 0.013 | 110.30 | 6.789 | CCCCCCCCC(CCCCCC)CC(=O)OCC(CCCCN(CCN(CC)CCO)C1CCC1)COC(=O)CC(CCCCCC)CCCCCCCC (stereo not shown) [Compound 69]
93.97 | 0.031 | 101.00 | 6.539 | CCCCCCCCC(CCCCCCCC)COC(=O)CCOCC(CN(C)CCN(CCO)C1CCCCCCC1)OCCC(=O)OCC(CCCCCCCC)CCCCCCCC (stereo not shown) [Compound 74]
93.44 | 0.01 | 83.05 | 6.785 | CCCCCCCCCCC(=O)OCC(CCCCN(CCO)C1CCCC1)COC(=O)CC(CCCCCC)CCCCCCCC (stereo not shown) [Compound 84]
